# Test results: US20220323583A1, “Pharmaceutical Formulations of Bi-Specific Diabodies and Use of the Same” (MacroGenics, Inc., priority 2019, published 2022)
# How the values were obtained:
# USP recommended microbes = assay: Microbial challenge testing, statements on several microbes together; assay type: cell-based
# Description: Microbial challenge testing was performed to evaluate the preservative effect of stabilizer solutions containing ≤0.17% BA and ≤0.1% MP. Microbial challenge testing was chosen as it more accurately represents the proposed dose preparation and dilution scheme where doses will be prepared aseptically and the number of microbes that may be introduced to the solution would be low. Microbial challenge testing was performed in two stages. The first stage determined the effective concentrations of BA and MP while the second stage tested the final formulation according to USP specifications. Each stage is described in detail below.
# To confirm the anti-microbial properties of Stabilizer 2 once diluted in saline (i.e., in the dosing solution), microbial growth testing was performed by SGS Life Sciences. The USP recommended microbes required for testing are listed below in Table 26.
# A high dosing solution (150 kg patient at 1,000 ng/kg cohort) was prepared to represent the maximum preservative dilution. […] Microbial growth studies were performed on all five USP recommended microbes with a target concentration between 10 and 100 CFU/mL. The microbial growth results are listed below in Table 27.
# Microbial Challenge Testing was performed to evaluate the preservative effect of stabilizer solutions. In short, high concentration (1250 ng/mL) dosing solution was prepared according Table 36. USP<51> recommended microbes were introduced to the solution with a target concertation between 10 and 100 CFU/mL. Solutions were stored at the USP<51> recommended temperature for each microbe and at predetermined time points, samples were collected. Testing of samples was performed according to USP<1227>. The threshold for no microbial growth was established to be not greater than 0.5 log colony count compared to the initial concentration of microbe.
# [1] = Stabilizer solution optimizing studies (turbidity, miscibility, pH, MP in solution); assay type: physicochemical
# Description: Since the BA concentration in the stabilizer solution is limited due to patient safety concerns, to increase the preservative effectiveness duration, the MP concentration in the stabilizer solution could be increased to 0.1%. However, when the concentrated stabilizer solution is presented as a 20 mL additive volume, this level of MP leads to high solution pH (≥9.0), solution turbidity, and PS80 immiscibility. To address these issues, a series of stabilizer solution optimizing studies were performed to determine the final concentrated stabilizer solution.
# The first study explored lower levels of PS80 in the concentrated stabilizer solution to determine if the turbidity and solution instability or immiscibility issues can be addressed. […] However, this concentration of PS80 remains turbid at room temperature. A subsequent study evaluating larger concentrated stabilizer solution additive volume presentations was performed to determine if lowering the levels of all excipients in the concentrated stabilizer solution helps address the high turbidity issue. […] To determine optimal concentrated stabilizer solution pH, studies varying the formulation buffer strength were performed. […] As a result, variable concentrations of MP were evaluated in a subsequent study. […] Based on the results of the previous PS80 and MP studies, a final study was performed evaluating variable concentrations of MP and PS80 to determine the optimal combination that addresses solution turbidity at an acceptable pH. […] When 40 mL of this stabilizer solution is diluted in a 250 mL saline bag, the resulting dosing solution will contain 0.17% BA and 0.055% MP. […] As a result, the preservative effectiveness of the re-formulated Stabilizer 2 solution having final preservative levels of 0.17% BA and 0.05% MP in the dosing solution, was examined through microbial challenge testing of USP recommended microbes.
# However, BA levels above 15.5 mg/mL result in solution instability or immiscibility and MP levels above 5.3 mg/mL produce a final solution above pH 8.4. […]
# [2] = RP-HPLC for BA and MP recovery (preservative concentration); assay type: physicochemical; details: for Tested Benzyl Alcohol Concentration: Study 2, diluted DART-A DP formulation in cassette 25° C., 100 rpm, 5000 ng/mL, expected 0.86%
# Description: Preservative recovery was measured using Reverse Phase (RP) HPLC analysis. The RP-HPLC configuration included a photodiode array (PDA) detector (λBA=254 nm, λMP=340 nm), a mobile phase composition of 40% acetonitrile, 0.1% formic acid and a Zorbax® 5 μm Eclipse-XDB-C18 80 Å liquid chromatography column. Samples were diluted ten-fold. The column temperature was set to 40±5° C. 50 μL of solution was injected for each 10-minute run.
# [3] = biological target: T1, soluble recombinant human IL-3 receptor alpha (rhIL3Rα) (Homo sapiens, UniProt P26951); assay: ELISA (rhIL3Rα) DART-A quantitation assay (concentration, protein recovery); details: 0.05 mg/mL PS80 or 0.1 mg/mL PS80
# T1 construct: soluble recombinant human IL-3 receptor alpha (rhIL3Rα)
# T1 sequence (P26951 19-305 limits assumed): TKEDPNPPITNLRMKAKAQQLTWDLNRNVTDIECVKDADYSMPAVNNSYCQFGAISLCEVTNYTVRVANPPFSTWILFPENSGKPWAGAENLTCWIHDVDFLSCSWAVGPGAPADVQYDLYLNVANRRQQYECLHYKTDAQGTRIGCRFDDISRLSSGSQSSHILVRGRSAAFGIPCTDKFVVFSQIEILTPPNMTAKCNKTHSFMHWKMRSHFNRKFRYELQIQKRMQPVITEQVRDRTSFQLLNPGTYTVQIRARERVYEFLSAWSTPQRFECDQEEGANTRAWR
# Description: In brief, the assay plate was coated with soluble recombinant human IL-3 receptor alpha (rhIL3Rα) overnight. […] After addition of MSD Read Buffer, the plate was inserted into the Sector Imager 2400 Plate Reader. When a voltage was applied to the plate electrodes, the bound Sulfo-TAG label produces an ECL signal, which was captured by the plate reader. A quantitative measure of the ECL signal emitted by each well was recorded, and the ECL counts emitted by the standard calibrators were used to generate a standard curve using a 4-parameter logistic (4PL) fit.
compound,measurement,setting,value
"OCc1ccccc1 [Benzyl Alcohol, benzyl alcohol]",antimicrobial property,USP recommended microbes; BA 0.17% alone (single pump target concentration),does not inhibit growth
same,antimicrobial property,"USP recommended microbes; BA 0.9% (concentration in Stabilizer 1), P. aeruginosa and C. albicans",both bactericidal and fungicidal
same,BA concentration that provided sufficient anti-microbial activity,USP recommended microbes; previous study,0.61%
same,BA level that results in solution instability or immiscibility,[1]; stabilizer solution,above 15.5 mg/mL
same,BA content,"[2]; Study 2, 25° C., 100 rpm shaking for up to 72 hours",at least 0.75%
same,Tested Benzyl Alcohol Concentration,[2]; T = 0,0.91%
same,Tested Benzyl Alcohol Concentration,[2]; T = 24 hours,0.78%
same,Tested Benzyl Alcohol Concentration,[2]; T = 48 hours,0.76%
same,Tested Benzyl Alcohol Concentration,[2]; T = 72 hours,0.78%
"COC(=O)c1ccc(O)cc1 [MP, methylparaben]",share of the target MP concentration that stays in solution,"[1]; concentrated stabilizer solution, pH≤8.0",30-50%
same,MP level that produces a final solution above pH 8.4,[1]; stabilizer solution,above 5.3 mg/mL
polysorbate 80 [PS80],blocking activity (inhibition of DART-A adsorption),[3],sufficient blocking activity
